# PubChem BioAssay (NCI)
#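 Test compounds were applied to cells in 96-well plates for 48 hours at 5 doses. GI50 = concentration required for 50% inhibition of growth. TGI denotes the concentration required for complete inhibition of growth.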
# Columns and labels:
# Assay in all cases: growth of human tumour cells (NCI), 48 h
# [1] = system: NCI-H226 lung
# [2] = system: SK-MEL-5 melanoma
# [3] = system: 786-0 renal
# [4] = system: HCT-116 colon
# [5] = system: KM12 colon
# [6] = system: NCI-H460 lung
# [7] = system: EKVX NSCLC
# [8] = system: SNB-75 CNS
# [9] = system: CCRF-CEM leukemia
# [10] = system: SW-620 colon
# [11] = system: OVCAR-3 ovarian
# [12] = system: UO-31 renal
# [13] = system: IGROV1 ovarian
# [14] = system: T-47D breast
# [15] = system: SR leukemia
# [16] = system: CAKI-1 renal
# [17] = system: A498 renal
# [18] = system: MDA-MB-435
# [19] = system: U251 CNS
# [20] = system: OVCAR-4 ovarian
# [21] = system: BT-549 breast
# [22] = system: MDA-MB-468 breast
# [23] = system: MDA-MB-231 breast
# [24] = system: M14 melanoma
# [25] = system: SN12C renal
# [26] = system: RPMI-8226 leukemia
# [27] = system: MOLT-4 leukemia
# [28] = system: HS 578T breast
# [29] = system: NCI-H23 lung
# [30] = system: ACHN renal
# [31] = system: NCI/ADR-RES ovarian
# [32] = system: RXF 393 renal
# [33] = system: COLO 205 colon
# [34] = system: HOP-62 NSCLC
# [35] = system: MALME-3M melanoma
# [36] = system: HOP-92 NSCLC
# [37] = system: NCI-H522 lung
# [38] = system: SNB-19 CNS
# [39] = system: OVCAR-8 ovarian
# [40] = system: SK-MEL-28 melanoma
# [41] = system: SK-MEL-2 melanoma
# [42] = system: UACC-257 melanoma
# [43] = system: SF-539 CNS
# [44] = system: PC-3 prostate
# [45] = system: DU-145 prostate
# [46] = system: TK-10 renal
# [47] = system: HL-60(TB) leukemia
# [48] = system: K-562 leukemia
# [49] = system: SK-OV-3 ovarian
# [50] = system: SF-295 CNS
# [51] = system: HT29 colon
# [52] = system: UACC-62 melanoma
# [53] = system: HCC-2998 colon
# [54] = system: A549 NSCLC
# [55] = system: HCT-15 colon
# [56] = system: SF-268 CNS
# [57] = system: OVCAR-5 ovarian
# [58] = system: MCF7 breast
compound,measurement,setting,value
COc1ccc2c(c1)c(-c1cc(N)n3nc(-c4cn(C)c5ccccc45)cc3n1)cn2C,GI50,[1],2.04 µM
same,TGI,[1],4.93 µM
same,GI50,[2],1.81 µM
same,TGI,[2],3.23 µM
same,GI50,[3],1.55 µM
same,TGI,[3],2.97 µM
same,GI50,[4],1.16 µM
same,TGI,[4],2.42 µM
same,GI50,[5],2.1 µM
same,TGI,[5],4.48 µM
same,GI50,[6],1.9 µM
same,TGI,[6],3.6 µM
same,GI50,[7],1.46 µM
same,TGI,[7],3.3 µM
same,GI50,[8],1.43 µM
same,TGI,[8],2.8 µM
same,GI50,[9],0.864 µM
same,TGI,[9],5.38 µM
same,GI50,[10],1.8 µM
same,TGI,[10],3.6 µM
same,GI50,[11],1.94 µM
same,TGI,[11],3.68 µM
same,GI50,[12],1.59 µM
same,TGI,[12],2.98 µM
same,GI50,[13],1.73 µM
same,TGI,[13],3.25 µM
same,GI50,[14],1.94 µM
same,TGI,[14],4.15 µM
same,GI50,[15],0.288 µM
same,TGI,[15],1.13 µM
same,GI50,[16],1.71 µM
same,TGI,[16],3.14 µM
same,GI50,[17],1.76 µM
same,TGI,[17],3.27 µM
same,GI50,[18],1.76 µM
same,TGI,[18],3.21 µM
same,GI50,[19],1.84 µM
same,TGI,[19],3.44 µM
same,GI50,[20],1.82 µM
same,TGI,[20],3.28 µM
same,GI50,[21],1.87 µM
same,TGI,[21],3.57 µM
same,GI50,[22],1.67 µM
same,TGI,[22],3.31 µM
same,GI50,[23],1.82 µM
same,TGI,[23],3.27 µM
same,GI50,[24],1.85 µM
same,TGI,[24],3.59 µM
same,GI50,[25],1.66 µM
same,TGI,[25],3.05 µM
same,GI50,[26],2.08 µM
same,TGI,[26],6.07 µM
same,GI50,[27],1.69 µM
same,TGI,[27],5.41 µM
same,GI50,[28],2.18 µM
same,TGI,[28],4.77 µM
same,GI50,[29],1.97 µM
same,TGI,[29],4.09 µM
same,GI50,[30],1.65 µM
same,TGI,[30],3.02 µM
same,GI50,[31],2.03 µM
same,TGI,[31],4.18 µM
same,GI50,[32],1.85 µM
same,TGI,[32],3.41 µM
same,GI50,[33],1.92 µM
same,TGI,[33],3.67 µM
same,GI50,[34],1.73 µM
same,TGI,[34],3.35 µM
same,GI50,[35],1.7 µM
same,TGI,[35],3.09 µM
same,GI50,[36],1.76 µM
same,TGI,[36],3.41 µM
same,GI50,[37],1.65 µM
same,TGI,[37],3.15 µM
same,GI50,[38],2.18 µM
same,TGI,[38],5 µM
same,GI50,[39],1.88 µM
same,TGI,[39],3.53 µM
same,GI50,[40],1.8 µM
same,TGI,[40],3.32 µM
same,GI50,[41],1.7 µM
same,TGI,[41],3.23 µM
same,GI50,[42],1.77 µM
same,TGI,[42],3.26 µM
same,GI50,[43],1.7 µM
same,TGI,[43],3.19 µM
same,GI50,[44],1.8 µM
same,TGI,[44],3.69 µM
same,GI50,[45],2.05 µM
same,TGI,[45],4.01 µM
same,GI50,[46],1.91 µM
same,TGI,[46],3.36 µM
same,GI50,[47],1.4 µM
same,TGI,[47],3.94 µM
same,GI50,[48],0.401 µM
same,TGI,[48],4.5 µM
same,GI50,[49],1.92 µM
same,TGI,[49],3.51 µM
same,GI50,[50],1.78 µM
same,TGI,[50],3.43 µM
same,GI50,[51],1.86 µM
same,TGI,[51],3.38 µM
same,GI50,[52],1.73 µM
same,TGI,[52],3.14 µM
same,GI50,[53],2.09 µM
same,TGI,[53],3.65 µM
same,GI50,[54],1.81 µM
same,TGI,[54],3.51 µM
same,GI50,[55],1.04 µM
same,TGI,[55],2.68 µM
same,GI50,[56],1.97 µM
same,TGI,[56],4.08 µM
same,GI50,[57],1.95 µM
same,TGI,[57],3.85 µM
same,GI50,[58],0.934 µM
same,TGI,[58],2.52 µM
